From ChEMBL document CHEMBL4219035, “Synthesis of novel forskolin isoxazole derivatives with potent anti-cancer activity against breast cancer cell lines” (Bioorg Med Chem Lett, 2017) come the findings set out here.

Active and inactive are the calls of the source. No cut-off for these calls is given here.

Format in all cases: functional, cell-based
For experiment [1], the system named is MCF7. The experiment is described as follows: Antiproliferative activity against human MCF7 cells after 48 hrs by Alamar blue assay. The following applies: MCF7, 48 h. In general terms: Resazurin is reduced to fluorescent resorufin, in cell work by metabolically active cells.
Another experiment deals with BT-474. The experiment is described as follows: Antiproliferative activity against human BT474 cells after 48 hrs by Alamar blue assay. The following applies: BT-474, 48 h.
For experiment [2], the system named is MCF7. The experiment is described as follows: Cytotoxicity against human MCF7 cells assessed as morphological changes after 48 hrs by microscopic analysis.

Broadly, the IC50 is the point on the concentration scale where inhibition reaches its midpoint. Higher therefore signals a need for much substance. As for `CC(=O)O[C@H]1[C@H]2C(C)(C)CC[C@H](OCc3cc(-c4ccc(OCc5ccccc5)cc4)no3)[C@]2(C)[C@@]2(O)C(=O)C[C@](C)(C3CC(c4ccc(OCc5ccccc5)cc4)=NO3)O[C@]2(C)[C@H]1O` (stereo partly specified), the values for the IC50 with MCF7 [1] and with BT-474 were 3.3 µM and 1.3 µM, respectively.
The matching figures for `C#CCO[C@H]1CCC(C)(C)[C@@H]2[C@H](O)[C@H](OC(C)=O)[C@@]3(C)O[C@@](C)(CC)CC(=O)[C@]3(O)[C@@]12C`: 10 µM and more than 100 µM.
The matching figures for `C=C[C@@]1(C)CC(=O)[C@]2(O)[C@@]3(C)[C@@H](OCc4cc(-c5ccc(OC)c(OC)c5)no4)CCC(C)(C)[C@@H]3[C@H](OC(C)=O)[C@H](O)[C@@]2(C)O1`: 12 µM and 28.3 µM.
The corresponding values for `C=C[C@@]1(C)CC(=O)[C@]2(O)[C@@]3(C)[C@@H](OCc4cc(-c5ccc(Cl)cc5)no4)CCC(C)(C)[C@@H]3[C@H](OC(C)=O)[C@H](O)[C@@]2(C)O1` are 4 µM and more than 100 µM.
With `CC(=O)O[C@H]1[C@@H](O)[C@H]2C(C)(C)CC[C@H](OCc3cc(-c4ccccc4)no3)[C@]2(C)[C@@]2(O)C(=O)C[C@](C)(C3CC(c4ccccc4)=NO3)O[C@]12C` (stereo partly specified), the results for the concentration for half-maximal inhibition (IC50) with MCF7 [1] and in the experiment with BT-474 were 35.3 µM and more than 100 µM, respectively.
For the compound `COc1ccc(C2=NOC([C@@]3(C)CC(=O)[C@]4(O)[C@@]5(C)[C@@H](OCc6cc(-c7ccc(OC)c(OC)c7)no6)CCC(C)(C)[C@@H]5[C@H](O)[C@H](OC(C)=O)[C@@]4(C)O3)C2)cc1OC` (stereo partly specified), the IC50 with MCF7 [1] is 0.5 µM; with BT-474, more than 100 µM.
For `C=C[C@@]1(C)CC(=O)[C@]2(O)[C@@]3(C)[C@@H](O)CCC(C)(C)[C@@H]3[C@H](O)[C@H](OC(C)=O)[C@@]2(C)O1` [COLFORSIN], the figures for the IC50 in the experiment with MCF7 [1] and in the experiment with BT-474 were 63.3 µM and more than 100 µM, respectively. For the same compound, the outcome in the experiment with MCF7 [2] was Active.
For `C#CCO[C@H]1CCC(C)(C)[C@@H]2[C@H](O)[C@H](OC(C)=O)[C@@]3(C)O[C@@](C)(C=C)CC(=O)[C@]3(O)[C@@]12C`, the IC50 in the experiment on MCF7 [1] and with BT-474 was more than 100 µM in each case.
For `CC[C@@]1(C)CC(=O)[C@]2(O)[C@@]3(C)[C@@H](OCc4cc(-c5cc(OC)c(OC)c(OC)c5)no4)CCC(C)(C)[C@@H]3[C@H](O)[C@H](OC(C)=O)[C@@]2(C)O1`, the IC50 in the experiment with MCF7 [1] amounted to 0.5 µM; in the experiment with BT-474 it was 29.3 µM.
The corresponding values for `COc1ccc(C2=NOC([C@@]3(C)CC(=O)[C@]4(O)[C@@]5(C)[C@@H](OCc6cc(-c7ccc(OC)c(OC)c7)no6)CCC(C)(C)[C@@H]5[C@H](OC(C)=O)[C@H](O)[C@@]4(C)O3)C2)cc1OC` (stereo partly specified) are 0.5 µM and more than 100 µM.
The matching figures for `C=C[C@@]1(C)CC(=O)[C@]2(O)[C@@]3(C)[C@@H](OCc4cc(-c5ccc(Cl)cc5)no4)CCC(C)(C)[C@@H]3[C@H](O)[C@H](OC(C)=O)[C@@]2(C)O1`: 5.6 µM and more than 100 µM.
In the case of `C=C[C@@]1(C)CC(=O)[C@]2(O)[C@@]3(C)[C@@H](OCc4cc(-c5ccc(OCc6ccccc6)cc5)no4)CCC(C)(C)[C@@H]3[C@H](OC(C)=O)[C@H](O)[C@@]2(C)O1`, the IC50 with MCF7 [1] is 84.6 µM; with BT-474, more than 100 µM.
In the case of `C=C[C@@]1(C)CC(=O)[C@]2(O)[C@@]3(C)[C@@H](OCc4cc(-c5ccc(OCc6ccccc6)cc5)no4)CCC(C)(C)[C@@H]3[C@H](O)[C@H](OC(C)=O)[C@@]2(C)O1`, the IC50 with MCF7 [1] and with BT-474 was 0.5 µM throughout. Further, the result in the experiment on MCF7 [2] was Active.
On to `C=C[C@@]1(C)CC(=O)[C@]2(O)[C@@]3(C)[C@@H](OCc4cc(-c5c(OC)cc(OC)cc5OC)no4)CCC(C)(C)[C@@H]3[C@H](O)[C@H](OC(C)=O)[C@@]2(C)O1`, for which the IC50 with MCF7 [1] was 0.5 µM; in the experiment with BT-474, more than 100 µM.
For `C=C[C@@]1(C)CC(=O)[C@]2(O)[C@@]3(C)[C@@H](OCc4cc(-c5ccc(OC)c(OC)c5)no4)CCC(C)(C)[C@@H]3[C@H](O)[C@H](OC(C)=O)[C@@]2(C)O1`, the half-inhibitory concentration (IC50) in the experiment with MCF7 [1] was 1.1 µM; in the experiment with BT-474 it was more than 100 µM.
Regarding `CC(=O)O[C@H]1[C@@H](O)[C@H]2C(C)(C)CC[C@H](OCc3cc(-c4ccc(OCc5ccccc5)cc4)no3)[C@]2(C)[C@@]2(O)C(=O)C[C@](C)(C3CC(c4ccc(OCc5ccccc5)cc4)=NO3)O[C@]12C` (stereo partly specified), the IC50 in the experiment on MCF7 [1] is 52.6 µM; in the experiment on BT-474, 79.6 µM.
For `C=C[C@@]1(C)CC(=O)[C@]2(O)[C@@]3(C)[C@@H](OCc4cc(-c5ccc(C)cc5)no4)CCC(C)(C)[C@@H]3[C@H](OC(C)=O)[C@H](O)[C@@]2(C)O1`, the IC50 in the experiment on MCF7 [1] is 32 µM; in the experiment on BT-474, more than 100 µM.
The corresponding values for `COc1ccc(C2=NOC([C@@]3(C)CC(=O)[C@]4(O)[C@@]5(C)[C@@H](OCc6cc(-c7ccc(OC)cc7)no6)CCC(C)(C)[C@@H]5[C@H](OC(C)=O)[C@H](O)[C@@]4(C)O3)C2)cc1` (stereo partly specified) are 79.3 µM and more than 100 µM.
The matching figures for `CC[C@@]1(C)CC(=O)[C@]2(O)[C@@]3(C)[C@@H](OCc4cc(-c5ccccc5)no4)CCC(C)(C)[C@@H]3[C@H](O)[C@H](OC(C)=O)[C@@]2(C)O1`: 2.6 µM and 9.1 µM.
In the case of `C=C[C@@]1(C)CC(=O)[C@]2(O)[C@@]3(C)[C@@H](OCc4cc(-c5ccc(C)cc5)no4)CCC(C)(C)[C@@H]3[C@H](O)[C@H](OC(C)=O)[C@@]2(C)O1`, the IC50 was found to be 7 µM in the experiment with MCF7 [1] and 75 µM in the experiment with BT-474.
The matching figures for `COc1ccc(C2=NOC([C@@]3(C)CC(=O)[C@]4(O)[C@@]5(C)[C@@H](OCc6cc(-c7ccc(OC)cc7)no6)CCC(C)(C)[C@@H]5[C@H](O)[C@H](OC(C)=O)[C@@]4(C)O3)C2)cc1` (stereo partly specified): 3 µM and 4.3 µM.
On to `CC[C@@]1(C)CC(=O)[C@]2(O)[C@@]3(C)[C@@H](OCc4cc(-c5ccc(OC)c(OC)c5)no4)CCC(C)(C)[C@@H]3[C@H](O)[C@H](OC(C)=O)[C@@]2(C)O1`, for which the figures for the IC50 in the experiment with MCF7 [1] and with BT-474 were 9.6 µM and more than 100 µM, respectively.
Take `C=C[C@@]1(C)CC(=O)[C@]2(O)[C@@]3(C)[C@@H](OCc4cc(-c5ccccc5)no4)CCC(C)(C)[C@@H]3[C@H](O)[C@H](OC(C)=O)[C@@]2(C)O1`: the IC50 in the experiment with MCF7 [1] is 0.5 µM; with BT-474, 5 µM. Besides, the result with MCF7 [2] was Active.
In the case of `CC(=O)O[C@H]1[C@@H](O)[C@H]2C(C)(C)CC[C@H](OCc3cc(-c4ccc(C)cc4)no3)[C@]2(C)[C@@]2(O)C(=O)C[C@](C)(C3CC(c4ccc(C)cc4)=NO3)O[C@]12C` (stereo partly specified), the figures for the IC50 with MCF7 [1] and in the experiment on BT-474 were 5.6 µM and more than 100 µM, respectively.
Regarding `C=C[C@@]1(C)CC(=O)[C@]2(O)[C@@]3(C)[C@@H](OCc4cc(-c5ccc(OC)cc5)no4)CCC(C)(C)[C@@H]3[C@H](O)[C@H](OC(C)=O)[C@@]2(C)O1`, the values for the IC50 in the experiment on MCF7 [1] and in the experiment on BT-474 were 0.5 µM and 4 µM, respectively. Further, the result with MCF7 [2] was Active.
As to `C=C[C@@]1(C)CC(=O)[C@]2(O)[C@@]3(C)[C@@H](OCc4cc(-c5ccc(OC)cc5)no4)CCC(C)(C)[C@@H]3[C@H](OC(C)=O)[C@H](O)[C@@]2(C)O1`, the IC50 was 57.3 µM with MCF7 [1] and more than 100 µM in the experiment with BT-474.
The corresponding values for `C=C[C@@]1(C)CC(=O)[C@]2(O)[C@@]3(C)[C@@H](OCc4cc(-c5c(OC)cc(OC)cc5OC)no4)CCC(C)(C)[C@@H]3[C@H](OC(C)=O)[C@H](O)[C@@]2(C)O1` are 0.5 µM and more than 100 µM.
On to `CC[C@@]1(C)CC(=O)[C@]2(O)[C@@]3(C)[C@@H](OCc4cc(-c5ccc(Cl)cc5)no4)CCC(C)(C)[C@@H]3[C@H](O)[C@H](OC(C)=O)[C@@]2(C)O1`, for which the IC50 in the experiment with MCF7 [1] was found to be 1.6 µM; in the experiment on BT-474 it was 7 µM.
On to `CC[C@@]1(C)CC(=O)[C@]2(O)[C@@]3(C)[C@@H](OCc4cc(-c5ccc(OC)cc5)no4)CCC(C)(C)[C@@H]3[C@H](O)[C@H](OC(C)=O)[C@@]2(C)O1`, for which the IC50 was found to be 0.5 µM in the experiment with MCF7 [1] and 2.1 µM with BT-474. Also, in the experiment with MCF7 [2], the result was Active.
For the compound `CC(=O)O[C@H]1[C@H]2C(C)(C)CC[C@H](OCc3cc(-c4ccc(C)cc4)no3)[C@]2(C)[C@@]2(O)C(=O)C[C@](C)(C3CC(c4ccc(C)cc4)=NO3)O[C@]2(C)[C@H]1O` (stereo partly specified), the IC50 is 59 µM with MCF7 [1] and more than 100 µM with BT-474.
Turning to `C#CCO[C@H]1CCC(C)(C)[C@@H]2[C@H](OC(C)=O)[C@H](O)[C@@]3(C)O[C@@](C)(C=C)CC(=O)[C@]3(O)[C@@]12C`, the IC50 with MCF7 [1] was 30 µM; in the experiment on BT-474 it was more than 100 µM.
Take `C=C[C@@]1(C)CC(=O)[C@]2(O)[C@@]3(C)[C@@H](OCc4cc(-c5cc(OC)c(OC)c(OC)c5)no4)CCC(C)(C)[C@@H]3[C@H](OC(C)=O)[C@H](O)[C@@]2(C)O1`: the values for the half-maximal inhibitory concentration (IC50) in the experiment on MCF7 [1] and in the experiment with BT-474 were 4.4 µM and more than 100 µM, respectively.
As to `C=C[C@@]1(C)CC(=O)[C@]2(O)[C@@]3(C)[C@@H](OCc4cc(-c5cc(OC)c(OC)c(OC)c5)no4)CCC(C)(C)[C@@H]3[C@H](O)[C@H](OC(C)=O)[C@@]2(C)O1`, the values for the IC50 in the experiment with MCF7 [1] and in the experiment with BT-474 were 55.3 µM and more than 100 µM, respectively.
